# Measurements published in patent US20050208058A1, “Compositions and methods for modulating cell division” (priority 2003, published 2005).
# d = 2'-deoxy (DNA)
# Key:
# Assay type in all cases: cell-based, human
# [1] = test system: RPE cells; experiment: BrDU staining of cells treated in tandem with two siRNAs (p53 dependence); settings: tandem treatment silaminin then indicated siRNA, vs silamin/silamin; FIG. 6B
# Description: To further study the effects of silencing centrosomal genes, the following cell cycle experiments were performed using RPE cells. In immunofluorescence experiments, cells were delivered by OLIGOFECTAMINE in a media solution containing between 1-100 nanomolar concentration of siRNAs. After 4 hours of incubation with lipofectamine, cells were washed, and cell cycle progression was assayed by (i) treating cells with 5-Bromo-2′-deoxyuridine (BrDU from Sigma, St Louis, Mo.) for 24 hours and staining for BrDU or (ii) staining cells with antibody to Ki-67 (BD Biosciences) according to manufacturer's instructions. BrDU treatment and staining were performed as follows: after 50-70 hours incubation with siRNA, BrDU was added to cells at a final concentration of 5 μg/ml. Cells were fixed in −20° C. methanol and then treated with 2N HCL at 22° C. for 30 minutes, incubated with 1:500 mouse anti-BrdU antibody (Becton Dickinson, Palo Alto, Calif.), and labeled with 1:1,000 goat FITC-mouse antibody (Molecular Probes, Inc.). Cells were also treated with 4′,6-diamidino-2-phenylindole (DAPI) (Molecular Probes) according to the manufacturer's instructions. Cells were prepared, imaged, and the resulting images were deconvolved as described in Example 1.
# (§1) A number of experiments were conducted to determine if p53 is required for the cell cycle arrest phenotype described herein. FACS analysis of tandem siRNA-treated cells was performed as described in Example 2. BrDU and DAPI imaging was performed as described in Example 2. Intracellular p53 was visualized using anti-p53 antibody that is specific for activated p53 (i.e., p53 phosphorylated at Serine 33) (“α-Pser33-p53” provided by Yoichi Taya and described in Kishis et al., J. Biol. Chem., 276:39115-3922, 2001)
# [2] = test system: RPE cells; experiment: FACS of cells treated in tandem with two siRNAs (p53 dependence); settings: tandem treatment silamin then siGCP2; FIG. 6A
# Description: For flow cytometry (i.e., fluorescence-activated cell sorter or FACS) experiments, siRNAs were delivered to cells as described above, and were incubated for 50-70 hours. To synchronize cells, nocodazole was added to the cells to a concentration of 5 μg/mL for 12 hours. Cells were stained with propidium iodide and analyzed by flow cytometry (FACSCAN; Becton Dickinson) using FLOJO® software (Tree Star, Inc., Ashland, Oreg.).
# as §1
# In FIG. 6A each line tracing represents FACS data from cells treated in tandem with the siRNAs directed to the gene products indicated above the line. Cells were first treated with siRNA directed to the gene product to the left of the slash. Up to 24 hours later, siRNA directed to the gene product to the right of the slash was added. […] 12 hours before collecting the cells, nocodazole was added to the cells analyzed in the bottom three line tracings. […]
# [3] = test system: GCP2; experiment: Immunofluorescence of GCP2 at the centrosome after siRNA treatment; settings: vs siLamin; FIG. 1B
# Description: To test the ability of siRNAs to silence centrosomal gene products, cells were treated with siRNAs for 24 hours. Cells were diploid, telomerase-immortalized human retinal pigment epithelial (RPE1) cells (hTERT-RPE1s from Clontech, Palo Alto, Calif.) (see Morales et al., Nat Genet, 21:115-118, 1999). siRNAs directed to δ-tubulin (SEQ ID NO:2), γ-tubulin (SEQ ID NO:4), GCP2 (SEQ ID NO:5), GCP3(SEQ ID NO:6), cNAP1 (SEQ ID NO:8), PCM1 (SEQ ID NO:9), ninein (SEQ ID NO:21), NEK2a (SEQ ID NO:10), centrin2 (SEQ ID NO:12), CDC14A (SEQ ID NO:13), gapcena (SEQ ID NO:15), nemo (SEQ ID NO:16), pericentrin (SEQ ID NO:23), lamin A/C (CUGGACUUCCAGAAGAACA, SEQ ID NO: 24) zyxin (UGUGGCUGUCAACGAACUC, SEQ ID NO:25), and p53 (GGACAAGGGUUGGGCUGGG, SEQ ID NO:26) were made as complementary single stranded 19-mer siRNAs with 3′ dTdT overhangs (Dharmacon Inc., Lafayette, Colo.), deprotected, annealed and delivered into cells using OLIGOFECTAMINE® from Invitrogen (Carlsbad, Calif.). Nucleotides were delivered in media containing up to 100 nanomolar concentrations of siRNAs. […]
# FIG. 1B compares cells treated with siRNA to Lamin (siLamin, left panel) and GCP2 (siGCP2, right panel). Oval shaped fluorescence staining indicates nuclear DNA (large arrow). […]
sequence,measurement,setting,value
"UCUCGUACUCCAGAAGACU (siRNA; RNA, 3' dTdT, backbone not given here) [siGCP2, siRNA directed to GCP2]",cells incorporating BrDU,[1],substantially fewer
same,nocodazole shift from G1 peak to G2/M peak,[2],blocked
same,GCP2 level in the centrosome (immunofluorescence),[3],reduced levels of GCP2 in the centrosome
